# In US9777005B2 (Takeda Pharmaceutical Company Limited, priority 2012, dated 2017):
# Target: T1, human M1 receptor (hCHRM1) (Homo sapiens, UniProt P11229)
# T1 construct: expressed in transfected cells; host or cells: CHO-K1
# T1 sequence (P11229 1-460): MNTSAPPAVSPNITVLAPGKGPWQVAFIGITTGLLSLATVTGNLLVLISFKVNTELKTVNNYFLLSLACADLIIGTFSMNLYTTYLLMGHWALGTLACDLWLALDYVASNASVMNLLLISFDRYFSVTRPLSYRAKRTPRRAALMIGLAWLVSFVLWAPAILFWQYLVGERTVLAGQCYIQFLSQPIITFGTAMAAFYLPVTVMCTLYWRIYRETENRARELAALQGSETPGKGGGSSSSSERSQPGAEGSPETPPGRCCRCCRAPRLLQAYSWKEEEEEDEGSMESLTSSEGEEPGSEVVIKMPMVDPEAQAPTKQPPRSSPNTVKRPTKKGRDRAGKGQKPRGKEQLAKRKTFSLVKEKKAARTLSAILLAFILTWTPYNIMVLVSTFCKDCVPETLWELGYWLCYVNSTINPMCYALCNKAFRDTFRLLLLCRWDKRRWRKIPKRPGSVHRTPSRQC
# Assay: Measurement of M1 receptor positive allosteric modulator (M1PAM) activity, calcium fluorescence (FLIPRtetra) in CHO-K1 cells in the presence of acetylcholine at EC20
# Type: cell-based
# Conditions: in the presence of acetylcholine at EC20 (final 0.6 nM), CHO-K1 cells expressing hCHRM1; for EC50: inflection point of M1PAM activity, read-out: IP value; for activity (%) at 10 μM: test compound 10 μM
# Experimental: Measurement of M1 Receptor Positive Allosteric Modulator (M1PAM) Activity
# The activity of a test compound in the presence of acetylcholine at EC20 concentration (final concentration 0.6 nM), which affords an action corresponding to 20% of the maximum activity, was measured as PAM activity. The method is as follows. CHO-K1 cells forcibly expressing a human M1 receptor (hCHRM1) were plated on a 384-well black clear bottom plate (BD Falcon) at 5,000 cells/well, and cultured in an incubator at 37° C., 5% CO2 for 1 day. The medium in the cell plate was removed, and assay buffer A (Recording medium (DOJINDO LABORATORIES), 0.1% BSA (Wako Pure Chemical Industries, Ltd.), 2.5 μg/mL Fluo-4 AM (DOJINDO LABORATORIES), 0.08% Pluronic F127 (DOJINDO LABORATORIES), 1.25 mM probenecid (DOJINDO LABORATORIES)) containing a calcium indicator was added at 30 μL/well. The cells were left standing in the incubator at 37° C., 5% CO2 for 30 min, and further left standing at room temperature for 30 min. A test compound prepared by diluting with assay buffer B (HBSS (Invitrogen), 20 mM HEPES (Invitrogen), 0.1% BSA) containing 2.4 nM acetylcholine was added at 10 μL/well, and the fluorescence was measured by FLIPRtetra (Molecular Devices) for 1 min every 1 second. With the definition that the amount of change in the fluorescence on addition of acetylcholine (final concentration 1 μM) is 100% and that on addition of DMSO instead of a test compound is 0%, the activity (%) of the test compound and the inflection point in the concentration-dependent curve of the test compound were calculated as IP values.
Molecule,EC50 [nM],activity (%) at 10 μM [%]
"Cn1cc(-c2ccc(CN3Cc4ccnc(Oc5c(F)cccc5Cl)c4C3=O)cc2)cn1 [Example 397, 4-(2-chloro-6-fluorophenoxy)-2-(4-(1-methyl-1H-pyrazol-4-yl)benzyl)-1,2-dihydro-3H-pyrrolo[3,4-c]pyridin-3-one]",25,95
"Cn1ccc(-c2ccc(CN3Cc4ccnc(Oc5ccc(C(F)(F)F)cc5C#N)c4C3=O)cc2)n1 [Example 416, 2-((2-(4-(1-methyl-1H-pyrazol-3-yl)benzyl)-3-oxo-2,3-dihydro-1H-pyrrolo[3,4-c]pyridin-4-yl)oxy)-5-(trifluoromethyl)benzonitrile]",13,98
"Cc1nn(C)cc1-c1ccc(CN2Cc3cccc(O[C@@H]4COCC[C@H]4O)c3C2=O)cc1 [Example 251, 1,5-anhydro-2-deoxy-4-O-(2-(4-(1,3-dimethyl-1H-pyrazol-4-yl)benzyl)-3-oxo-2,3-dihydro-1H-isoindol-4-yl)-threo-pentitol]",7.5,117
"COCc1ccc(F)c(Oc2nccc3c2C(=O)N(Cc2ccc(-c4ccnc(C)c4)cc2)C3)c1 [Example 291, 4-(2-fluoro-5-(methoxymethyl)phenoxy)-2-(4-(2-methylpyridin-4-yl)benzyl)-1,2-dihydro-3H-pyrrolo[3,4-c]pyridin-3-one]",34,91
"Cn1cc(-c2ccc(CN3Cc4ncnc(Oc5ccc(C(F)F)cc5F)c4C3=O)cc2)cn1 [Example 307, 4-(4-(difluoromethyl)-2-fluorophenoxy)-6-(4-(1-methyl-1H-pyrazol-4-yl)benzyl)-6,7-dihydro-5H-pyrrolo[3,4-d]pyrimidin-5-one]",9.3,92
"1,5-anhydro-2-deoxy-3-O-(3-oxo-2-(4-(1H-pyrazol-1-yl)benzyl)-2,3-dihydro-1H-isoindol-4-yl)-threo-pentitol [Example 239]",6.1,109
"C=C(C)c1ccc(Oc2nccc3c2C(=O)N(Cc2ccc(-c4cnnc(C)c4)cc2)C3)c(F)c1 [Example 411, 4-(2-fluoro-4-(prop-1-en-2-yl)phenoxy)-2-(4-(6-methylpyridazin-4-yl)benzyl)-1,2-dihydro-3H-pyrrolo[3,4-c]pyridin-3-one]",61,102
"Cc1cc(-c2ccc(CN3Cc4ccnc(Oc5c(F)cc(C#N)cc5F)c4C3=O)cc2)ccn1 [Example 376, 3,5-difluoro-4-((2-(4-(2-methylpyridin-4-yl)benzyl)-3-oxo-2,3-dihydro-1H-pyrrolo[3,4-c]pyridin-4-yl)oxy)benzonitrile]",6.9,106
"Cn1cc(-c2ccc(CN3Cc4ccnc(OCC5CCC5)c4C3=O)c(F)c2)nn1 [Example 263, 4-(cyclobutylmethoxy)-2-(2-fluoro-4-(1-methyl-1H-1,2,3-triazol-4-yl)benzyl)-1,2-dihydro-3H-pyrrolo[3,4-c]pyridin-3-one]",41,106
"N#Cc1cccc(F)c1Oc1cccc2c1C(=O)N(Cc1ccc(-n3cccn3)cc1)C2 [Example 66, 3-fluoro-2-((3-oxo-2-(4-(1H-pyrazol-1-yl)benzyl)-2,3-dihydro-1H-isoindol-4-yl)oxy)benzonitrile]",69,101
"O=C1c2c(ccnc2OCC2CCCO2)CN1Cc1ccc(-c2cnn3ccccc23)cc1 (centres unmarked) [Example 289, 2-(4-(pyrazolo[1,5-a]pyridin-3-yl)benzyl)-4-((tetrahydrofuran-2-yl)methoxy)-1,2-dihydro-3H-pyrrolo[3,4-c]pyridin-3-one]",4.7,89
"O=C1c2c(ccnc2O[C@@H]2CCCC[C@H]2O)CN1Cc1cc(F)ccc1F (single isomer, unassigned) [Example 319, 2-(2,5-difluorobenzyl)-4-((trans-2-hydroxycyclohexyl)oxy)-1,2-dihydro-3H-pyrrolo[3,4-c]pyridin-3-one]",9.1,104
"O=C1c2c(cccc2O[C@H]2CCCC[C@@H]2O)CN1Cc1cccc(Br)c1 (relative stereo) [Example 48, 2-(3-bromobenzyl)-7-((trans-2-hydroxycyclohexyl)oxy)isoindolin-1-one]",360,100
"Cc1n[nH]c(C)c1Oc1cccc2c1C(=O)N(Cc1ccc(-c3cnn(C)c3)cc1)C2 [Example 22, 7-((3,5-dimethyl-1H-pyrazol-4-yl)oxy)-2-(4-(1-methyl-1H-pyrazol-4-yl)benzyl)isoindolin-1-one]",190,103
"Cn1cc(-c2ccc(CN3Cc4ncnc(Oc5c(F)cc(F)cc5F)c4C3=O)cc2)nn1 [Example 370, 6-(4-(1-methyl-1H-1,2,3-triazol-4-yl)benzyl)-4-(2,4,6-trifluorophenoxy)-6,7-dihydro-5H-pyrrolo[3,4-d]pyrimidin-5-one]",14,97
"N#Cc1cc(F)c(Oc2cccc3c2C(=O)N(Cc2ccc(-n4cccn4)cc2)C3)c(F)c1 [Example 364, 3,5-difluoro-4-((3-oxo-2-(4-(1H-pyrazol-1-yl)benzyl)-2,3-dihydro-1H-isoindol-4-yl)oxy)benzonitrile]",31,86
"Cc1cc(-c2ccc(CN3Cc4ccnc(OCC5CCCO5)c4C3=O)cc2)cnn1 (centres unmarked) [Example 326, 2-(4-(6-methylpyridazin-4-yl)benzyl)-4-((tetrahydrofuran-2-yl)methoxy)-1,2-dihydro-3H-pyrrolo[3,4-c]pyridin-3-one]",23,108
"NC(=O)c1ccc(CN2Cc3ccnc(Oc4ccc(C(F)(F)F)cc4F)c3C2=O)cc1F [Example 438, 2-fluoro-4-((4-(2-fluoro-4-(trifluoromethyl)phenoxy)-3-oxo-1,3-dihydro-2H-pyrrolo[3,4-c]pyridin-2-yl)methyl)benzamide]",14,101
"O=C1c2c(ccnc2O[C@H]2CCC[C@@H]2O)CN1Cc1ccc(-n2cccn2)cc1 (relative stereo) [Example 77, 4-((trans-2-hydroxycyclopentyl)oxy)-2-(4-(1H-pyrazol-1-yl)benzyl)-1,2-dihydro-3H-pyrrolo[3,4-c]pyridin-3-one]",39,103
"O=C1c2c(ccnc2Oc2ccc(C(F)(F)F)cc2F)CN1Cc1ccc(-c2ccnnc2)cc1 [Example 309, 4-(2-fluoro-4-(trifluoromethyl)phenoxy)-2-(4-(pyridazin-4-yl)benzyl)-1,2-dihydro-3H-pyrrolo[3,4-c]pyridin-3-one]",27,100
"O=C1c2c(cccc2O[C@@H]2COCC[C@H]2O)CN1Cc1ccc(Cl)cc1 (single isomer, unassigned) [Example 295, 1,5-anhydro-2-O-(2-(4-chlorobenzyl)-3-oxo-2,3-dihydro-1H-isoindol-4-yl)-4-deoxy-threo-pentitol]",150,100
"CNC(=O)c1ccc(CN2Cc3ccnc(Oc4ccc(C)cc4F)c3C2=O)cc1 [Example 433, 4-((4-(2-fluoro-4-methylphenoxy)-3-oxo-1,3-dihydro-2H-pyrrolo[3,4-c]pyridin-2-yl)methyl)-N-methylbenzamide]",10,101
